IC50 data for 16 compounds are collected here from patent publication US20120101095A1, “ALKOXY-THIENOPYRIMIDINES AS TGF-BETA RECEPTOR KINASE MODULATORS” (priority 2009, published 2012).

A value given as a limit tells only on which side of the number the result lay.

For this test, the target named is T1, GST-ALK5 (Homo sapiens, UniProt P36897).
T1 sequence (P36897 34-503): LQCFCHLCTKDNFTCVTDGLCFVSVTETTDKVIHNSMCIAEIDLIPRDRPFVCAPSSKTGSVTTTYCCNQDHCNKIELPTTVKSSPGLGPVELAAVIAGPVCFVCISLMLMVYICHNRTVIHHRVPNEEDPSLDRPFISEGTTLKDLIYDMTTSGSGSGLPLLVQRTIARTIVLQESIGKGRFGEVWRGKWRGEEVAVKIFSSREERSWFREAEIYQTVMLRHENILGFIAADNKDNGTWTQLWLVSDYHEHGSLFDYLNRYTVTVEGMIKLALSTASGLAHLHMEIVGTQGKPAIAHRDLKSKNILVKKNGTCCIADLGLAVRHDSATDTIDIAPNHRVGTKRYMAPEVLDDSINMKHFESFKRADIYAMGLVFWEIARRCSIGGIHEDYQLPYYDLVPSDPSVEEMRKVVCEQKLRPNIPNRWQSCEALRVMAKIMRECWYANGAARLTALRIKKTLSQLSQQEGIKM
Kind of test: In-vitro (enzyme) kinase assay, 384-well flashplate, GST-SMAD2 substrate. In kind it is biochemical. The following applies: 31.2 nM GST-ALK5, 439 nM GST-SMAD2, 3 mM ATP, 30° C., 45 min. The protocol:
In-Vitro (Enzyme) Assay for Determination of the Efficacy of Inhibitors of the Inhibition of TGF-Beta-Mediated Effects
The kinase assay was carried out as 384-well flashplate assay. 31.2 nM of GST-ALK5, 439 nM of GST-SMAD2 and 3 mM of ATP (with 0.3 μCi of ^33P-ATP/well) were incubated in a total volume of 35 μl (20 mM of HEPES, 10 mM of MgCl2, 5 mM of MnCl2, 1 mM of DTT, 0.1% of BSA, pH 7.4) without or with test substance (5-10 concentrations) at 30° C. for 45 min. The reaction was stopped using 25 μl of 200 mM EDTA solution, filtered with suction at room temperature after 30 min, and the wells were washed with 3 times 100 μl of 0.9% NaCl solution. Radioactivity was measured in the TopCount. The IC50 values were calculated using RS1 (Table 1). Above and below, all temperatures were indicated in ° C.
For `NC(=O)COc1nc(-c2cccc(Cl)c2)c2c(N)c(C(N)=O)sc2n1` [No 56, 5-Amino-2-carbamoylmethoxy-4-(3-chloro-phenyl)-thieno[2,3-d]pyrimidine-6-carboxylic acid amide], the 50% inhibitory concentration (IC50) – broadly, the concentration needed to halve the response being measured – is less than 100 nM.
Compound `NC(=O)c1sc2nc(OCC3CC3)nc(-c3cc4ccccc4s3)c2c1N` [No 2] gave a concentration for half-maximal inhibition (IC50) of more than 1000 nM.
For `Cc1ccc(-c2nc(O[C@H](C)[C@@H](C)O)nc3sc(C(N)=O)c(N)c23)o1` [No 34, 5-Amino-2-((1R,2R)-2-hydroxy-1-methyl-propoxy)-4-(5-methyl-furan-2-yl)-thieno[2,3-d]pyrimidine-6-carboxylic acid amide], the IC50 was 100 to 500 nM.
Take `NC(=O)c1sc2nc(OCCCCC3NC(=O)NC3=O)nc(-c3cccc(Cl)c3)c2c1N` (stereo not shown) [No 78, 5-Amino-4-(3-chloro-phenyl)-2-[4-(2,5-dioxo-imidazolidin-4-yl)-butoxy]-thieno[2,3-d]pyrimidine-6-carboxylic acid amide]: the IC50 is less than 100 nM.
`Cc1ccc(-c2nc(OCc3cnn(C)c3)nc3sc(C(N)=O)c(N)c23)o1` [No 24, 5-Amino-4-(5-methyl-furan-2-yl)-2-(1-methyl-1H-pyrazol-4-ylmethoxy)-thieno[2,3-d]pyrimidine-6-carboxylic acid amide] displayed a concentration for half-maximal inhibition (IC50) of less than 100 nM.
Take `NC(=O)c1sc2nc(OCC#CCO)nc(-c3cccc(Cl)c3)c2c1N` [No 59, 5-Amino-4-(3-chloro-phenyl)-2-(4-hydroxy-but-2-ynyloxy)-thieno[2,3-d]pyrimidine-6-carboxylic acid amide]: the concentration for half-maximal inhibition (IC50) is less than 100 nM.
The compound `COCc1cnn(CCOc2nc(-c3cccc(Cl)c3)c3c(N)c(C(N)=O)sc3n2)c1` [No 52, 5-Amino-4-(3-chloro-phenyl)-2-[2-(4-methoxymethyl-pyrazol-1-yl)-ethoxy]-thieno[2,3-d]pyrimidine-6-carboxylic acid amide] displayed an IC50 of 100 to 500 nM.
As for `NC(=O)c1sc2nc(OCCOCCO)nc(-c3cccc(Cl)c3)c2c1N` [No 66, 5-Amino-4-(3-chloro-phenyl)-2-[2-(2-hydroxy-ethoxy)-ethoxy]-thieno[2,3-d]pyrimidine-6-carboxylic acid amide], the figure is 100 to 500 nM; as for `Cn1cnc(COc2nc(-c3cccc(Cl)c3)c3c(N)c(C(N)=O)sc3n2)c1` [No 45, 5-Amino-4-(3-chloro-phenyl)-2-(1-methyl-1H-imidazol-4-ylmethoxy)-thieno[2,3-d]pyrimidine-6-carboxylic acid amide], less than 100 nM.
As for `NC(=O)c1sc2nc(OC3CCC(O)C3)nc(-c3cccc(Cl)c3)c2c1N` (stereo not shown) [No 64, 5-Amino-4-(3-chloro-phenyl)-2-(3-hydroxy-cyclopentyloxy)-thieno[2,3-d]pyrimidine-6-carboxylic acid amide], the IC50 lay within 100 to 500 nM.
With `NC(=O)c1sc2nc(OCC3CC3)nc(-c3cccc(Cl)c3)c2c1N` [No 4, 5-Amino-4-(3-chloro-phenyl)-2-cyclopropylmethoxy-thieno[2,3-d]pyrimidine-6-carboxylic acid amide] the figure was less than 100 nM; with `NC(=O)c1sc2nc(OCCN3CCNC3=O)nc(-c3cccc(Cl)c3)c2c1N` [No 61, 5-Amino-4-(3-chloro-phenyl)-2-[2-(2-oxo-imidazolidin-1-yl)-ethoxy]-thieno[2,3-d]pyrimidine-6-carboxylic acid amide], 100 to 500 nM.
With `NC(=O)c1sc2nc(O[C@H]3CNC(=O)C3)nc(-c3cccc(Cl)c3)c2c1N` [No 63, 5-Amino-4-(3-chloro-phenyl)-2-((R)-5-oxo-pyrrolidin-3-yloxy)-thieno[2,3-d]pyrimidine-6-carboxylic acid amide] the figure was 100 to 500 nM.
With `Cc1cccc(-c2nc(OCCO)nc3sc(C(N)=O)c(N)c23)n1` [No 26, 5-Amino-2-(2-hydroxy-ethoxy)-4-(6-methyl-pyridin-2-yl)-thieno[2,3-d]pyrimidine-6-carboxylic acid amide] the figure was less than 100 nM; with `NC(=O)c1sc2nc(OC/C=C\CO)nc(-c3cccc(Cl)c3)c2c1N` [No 58, 5-Amino-4-(3-chloro-phenyl)-2-((Z)-4-hydroxy-but-2-enyloxy)-thieno[2,3-d]pyrimidine-6-carboxylic acid amide], less than 100 nM.
In turn, `COCCOc1nc(-c2cccc(C(F)(F)F)c2)c2c(N)c(C(N)=O)sc2n1` [No 16, 5-Amino-2-(2-methoxy-ethoxy)-4-(3-trifluoromethyl-phenyl)-thieno[2,3-d]pyrimidine-6-carboxylic acid amide] returned a half-maximal inhibitory concentration (IC50) of 500 to 1000 nM.
